Data set [1] in a line: Octanol-water partition coefficient, log P of the compound at pH 7.4 after 24 hrs by shake flask method. Type of data set: physicochemical.
Data set [2] deals with T1, Cholinesterase (Equus caballus, UniProt P81908). Description: Inhibition of equine serum BuChE using butyrylthiocholine iodide as substrate preincubated for 20 mins followed by substrate addition and measured after 20 mins by Ellman's method.
The target of the next data set is Acetylcholinesterase (Electrophorus electricus, UniProt O42275). Description: (§1) Inhibition of electric eel AChE at 20 uM using acetylthiocholine iodide as substrate preincubated for 20 mins followed by substrate addition and measured after 20 mins by Ellman's method relative to control. Particulars: 20 min, 20 µM.
Data set [3] has as its target acetylcholinesterase (AChE) (Electrophorus electricus, UniProt O42275). Described as §1. The settings on record: electric eel acetylcholinesterase enzyme, probe acetylthiocholine iodide.
For data set [4], the target named is Cholinesterase (Equus caballus) (UniProt P81908). Kind of data set: Inhibition of equine serum BuChE at 20 uM using butyrylthiocholine iodide as substrate preincubated for 20 mins followed by substrate addition and measured after 20 mins by Ellman's method relative to control.
Data set [5] in a line: Cytotoxicity against rat PC12 cells assessed as cell viability up to 50 uM after 24 hrs by MTT assay relative to control.
Data set [6] concerns the target T1, Cholinesterase. Description: Mixed-type inhibition of equine serum BuChE using varying levels of butyrylthiocholine iodide as substrate preincubated for 20 mins followed by substrate addition and measured after 20 mins by Lineweaver-Burk plot analysis. Particulars: read-out: Ki(app).
Data set [7] has as its target T1, Cholinesterase. Description: Non-competitive inhibition of equine serum BuChE using varying levels of butyrylthiocholine iodide as substrate preincubated for 20 mins followed by substrate addition and measured after 20 mins by Lineweaver-Burk plot analysis. Particulars: read-out: Ki(app).
The next data set relates to PC-12. Kind of data set: Neuroprotection against H2O2-induced oxidative stress in rat PC12 cells assessed as cell viability at 25 uM preincubated for 3 hrs followed by H2O2 addition and measured after 24 hrs by MTT assay relative to control. Particulars: read-out: Activity. Format: functional.

Structures are written as SMILES. The source made the active and inactive calls. The rule behind the calls is not given here.

Acetylcholinesterase, sequence (O42275 whole entry): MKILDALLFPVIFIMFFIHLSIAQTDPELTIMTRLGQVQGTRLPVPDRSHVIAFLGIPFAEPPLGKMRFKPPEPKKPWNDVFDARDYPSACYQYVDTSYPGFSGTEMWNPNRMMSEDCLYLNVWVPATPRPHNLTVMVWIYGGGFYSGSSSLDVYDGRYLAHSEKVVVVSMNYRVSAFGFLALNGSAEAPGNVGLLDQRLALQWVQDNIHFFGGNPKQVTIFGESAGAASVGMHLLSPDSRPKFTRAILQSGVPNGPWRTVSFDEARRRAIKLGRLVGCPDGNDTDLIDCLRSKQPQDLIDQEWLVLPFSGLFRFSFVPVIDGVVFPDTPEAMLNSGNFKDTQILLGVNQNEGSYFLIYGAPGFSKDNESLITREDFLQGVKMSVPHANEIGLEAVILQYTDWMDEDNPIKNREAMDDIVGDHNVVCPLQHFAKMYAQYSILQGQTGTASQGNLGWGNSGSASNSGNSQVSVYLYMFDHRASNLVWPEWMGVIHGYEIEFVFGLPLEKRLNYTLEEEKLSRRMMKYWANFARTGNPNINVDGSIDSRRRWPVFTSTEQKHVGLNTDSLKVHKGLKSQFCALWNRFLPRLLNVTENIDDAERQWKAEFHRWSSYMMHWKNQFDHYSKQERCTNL
acetylcholinesterase (AChE), sequence (O42275 whole entry): as above
Cholinesterase (Equus caballus), sequence (P81908 whole entry): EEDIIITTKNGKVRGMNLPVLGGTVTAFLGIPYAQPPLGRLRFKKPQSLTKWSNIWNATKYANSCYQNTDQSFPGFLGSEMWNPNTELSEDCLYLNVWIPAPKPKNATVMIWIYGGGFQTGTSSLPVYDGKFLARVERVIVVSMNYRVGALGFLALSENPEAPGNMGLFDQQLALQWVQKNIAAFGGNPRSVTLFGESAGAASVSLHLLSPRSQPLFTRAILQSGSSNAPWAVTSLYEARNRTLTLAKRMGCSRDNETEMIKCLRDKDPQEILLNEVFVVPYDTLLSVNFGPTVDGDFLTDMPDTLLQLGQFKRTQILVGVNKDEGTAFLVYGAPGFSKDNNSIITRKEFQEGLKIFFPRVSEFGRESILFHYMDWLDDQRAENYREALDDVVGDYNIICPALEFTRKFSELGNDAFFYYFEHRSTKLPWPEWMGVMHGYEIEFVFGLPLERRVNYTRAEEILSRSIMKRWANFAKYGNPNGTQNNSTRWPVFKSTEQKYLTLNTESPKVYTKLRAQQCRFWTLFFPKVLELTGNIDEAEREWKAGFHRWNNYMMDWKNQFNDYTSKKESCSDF
T1 sequence (P81908 whole entry): as above

For the compound `CC1=NN2C(=O)C(C)Oc3c(Br)cc(Cl)cc3C2C1` (centres undefined), the logD at 24 h in data set [1] was 2.18. On Cholinesterase [2], this compound had an IC50 of 11.1 µM. In addition, the “inhibition (INH)” value against Acetylcholinesterase is recorded as “Not Active”.
`CCC1Oc2c(Cl)cc(Cl)cc2C2CC(C)=NN2C1=O` (centres undefined) showed a logD at 24 h in [1] of 1.12. Also, on Cholinesterase [2], the IC50 was 4.67 µM. The compound further yielded an inhibition at 20 min, 20 µM in data set [3] of 26%.
For the compound `CC1=NN2C(=O)COc3c(Cl)cc(Cl)cc3C2C1` (centres undefined), the inhibition in data set [4] amounted to 31%. The compound also displayed an inhibition at 20 min, 20 µM in data set [3] of 25%.
On to `CC[C@@H]1Oc2c(Br)cc(Cl)cc2C2CC(C)=NN2C1=O` (some centres undefined), for which inhibition at Cholinesterase [2] was half-maximal at 20.4 µM (IC50). Moreover, at Acetylcholinesterase, the “inhibition (INH)” value is given as “Not Active”.
The compound `CC1=NN2C(=O)COc3c(Br)cc(Br)cc3C2C1` (centres undefined) had an inhibition in data set [4] of 24%. Moreover, the “inhibition (INH)” value against Acetylcholinesterase is listed as “Not Active”.
For `CC1Oc2c(Br)cc(Br)cc2C2CC(c3ccc(F)cc3)=NN2C1=O` (centres undefined) the same measures were “inactive” and “Not Active”.
Regarding `CC1=NN2C(=O)C(C)Oc3c(Br)cc(Br)cc3C2C1` (centres undefined), the inhibition in data set [4] worked out at 11%. Moreover, on Acetylcholinesterase, the “inhibition (INH)” value is listed as “Not Active”.
In [4], `CC1=NN2C(=O)COc3c(Br)cc(Cl)cc3C2C1` (centres undefined) gave an inhibition of 18%. Also, the inhibition at 20 min, 20 µM in data set [3] came out at 32%.
On to `CCC1Oc2ccc(Br)cc2C2CC(C)=NN2C1=O` (centres undefined), for which the logD at 24 h in data set [1] came out at 1.11. The inhibition in data set [4] amounted to 39%. The “inhibition (INH)” value against Acetylcholinesterase is listed as “Not Active”.
Turning to `CC1Oc2c(Cl)cc(Cl)cc2C2CC(c3ccco3)=NN2C1=O` (centres undefined), the inhibition in data set [4] worked out at 23%. Also, the inhibition at 20 min, 20 µM in data set [3] was 28%.
Consider `CC1=NN2C(=O)C(C)Oc3ccc(Cl)cc3C2C1` (centres undefined), for which the inhibition in data set [4] was 39%. For the same compound, the “inhibition (INH)” value at Acetylcholinesterase was “Not Active”.
Take `COc1cccc2c1OC(C)C(=O)N1N=C(C)CC21` (centres undefined): the inhibition result in [4] was “inactive”. Besides, the inhibition at 20 min, 20 µM in data set [3] amounted to 24%.
For `O=C1COc2ccc(Br)cc2C2CC(c3ccco3)=NN12` (centres undefined) the same measures were 20% and 25%.
Take `CC[C@H]1Oc2c(Br)cc(Cl)cc2C2CC(C)=NN2C1=O` (some centres undefined): the IC50 against Cholinesterase [2] was 1.14 µM. Moreover, at Acetylcholinesterase, the “inhibition (INH)” value is “Not Active”.
The compound `CC1=NN2C(=O)C(C)Oc3c(Cl)cc(Cl)cc3C2C1` (centres undefined) showed a logD at 24 h in [1] of 2.49. The compound also displayed an IC50 against Cholinesterase [2] of 5.95 µM. In addition, the inhibition at 20 min, 20 µM in data set [3] was 22%.
For `COc1cc2c(cc1OC)C(=O)C(CC1CCN(Cc3ccccc3)CC1)C2` (centres undefined) [DONEPEZIL], in data set [5] (pc-12), the viability at 24 h was more than 90%.
Turning to `CC1=NN2C(=O)COc3ccc(C)cc3C2C1` (centres undefined), the inhibition entry in data set [4] was “inactive”. In data set [3], the inhibition at 20 min, 20 µM worked out at 24%.
With `COc1cccc2c1OCC(=O)N1N=C(C)CC21` (centres undefined), the inhibition in data set [4] was 2%. In data set [3], this compound came in with an inhibition at 20 min, 20 µM of 34%.
For `CC1=NN2C(=O)COc3ccc(Cl)cc3C2C1` (centres undefined) the same measures were “inactive” and 2%.
For `CC1=NN2C(=O)C(C)Oc3ccc(Br)cc3C2C1` (centres undefined) the same measures were 18% and 23%.
The compound `CCC1Oc2ccc(Cl)cc2C2CC(C)=NN2C1=O` (centres undefined) displayed a logD at 24 h in data set [1] of 1.05. This compound also yielded an IC50 against Cholinesterase [2] of 12.8 µM. Besides, the “inhibition (INH)” value on Acetylcholinesterase is recorded as “Not Active”.
On to `CCC1Oc2c(Br)cc(Br)cc2C2CC(C)=NN2C1=O` (centres undefined), for which the Ki at Cholinesterase [6] stood at 7.6 µM. For the same compound, the pH-dependent lipophilicity (logD) at 24 h in [1] was determined as 1.08. In addition, 2.92 µM corresponded to half-maximal inhibition against Cholinesterase [2] (IC50). Also, the inhibition at 20 min, 20 µM in data set [3] stood at 41%.
Consider `CC1Oc2ccc(Br)cc2C2CC(c3ccc(F)cc3)=NN2C1=O` (centres undefined), for which the inhibition in [4] turned out to be 45%. Moreover, the “inhibition (INH)” value at Acetylcholinesterase is recorded as “Not Active”.
For `CC1Oc2ccc(Cl)cc2C2CC(c3ccc(F)cc3)=NN2C1=O` (centres undefined) the same measures were 17% and “Not Active”.
In [1], `CCC1Oc2c(Br)cc(Cl)cc2C2CC(C)=NN2C1=O` (centres undefined) registered a logD at 24 h of 1.57. The viability at 24 h in data set [5] (PC12 cells) is more than 90%. Besides, on Cholinesterase [2], the IC50 came to 2.04 µM. For the same compound, the “inhibition (INH)” value against Acetylcholinesterase is reported as “Not Active”. For the same compound, the Ki at Cholinesterase [7] was determined as 1.5 µM. Besides, the viability at 25 µM with PC-12 was determined as 70%.
`CC1=NN2C(=O)C(C)Oc3ccc(C)cc3C2C1` (centres undefined) returned an inhibition in [4] of 1%. Also, the inhibition at 20 min, 20 µM in data set [3] was determined as 22%.
Take `CC1=NN2C(=O)COc3ccc(Br)cc3C2C1` (centres undefined): in [4], the inhibition entry was “inactive”. In data set [3], this compound came in with an inhibition at 20 min, 20 µM of 29%.

The record behind these values is ChEMBL document CHEMBL4145541, “Tricyclic pyrazolo[1,5-d][1,4]benzoxazepin-5(6H)-one scaffold derivatives: Synthesis and biological evaluation as selective BuChE inhibitors” (Eur J Med Chem, 2018).
